Results from patent publication US7700101B2, “Reagents and method for modulating Dkk-mediated interactions” (Wyeth, priority 2001, dated 2010).
pKd: −log10 of the molar value. Like-named read-outs stand apart in the source and are kept apart here.

Columns and labels:
[1] = test system: LRP5 LBD; experiment: Yeast-2 hybrid interaction trap LRP5 LBD-LexA / Gal4AD-Dkk; assay type: binding; conditions: LRP5LBD-LexA bait and Gal4AD-Dkk prey
Text: Small molecule inhibitors (or partial inhibitors) of the Dkk-LRP interaction may be an excellent osteogenic therapeutic. One way to investigate this important protein-protein interaction is using Y2H techniques substantially as described above and as is well known in the art. […] This interaction is quantitated using a reporter element known in the art, e.g., LacZ or luciferase, which is only activated when bait and prey interact. The Y2H assay is used to screen for compounds which modulate the LRP-Dkk interaction. Such a modulation would be visualized by a reduction in reporter element activation signifying a weaker or disrupted interaction, or by an enhancement of the reporter element activation signifying a stronger interaction. Thus, the Y2H assay can be used as a high-throughput screening technique to identify compounds which disrupt or enhance Dkk interaction with LRP5/LRP6/HBM, which may serve as potential therapeutics.
For example, the Interaction Trap methodology can be used as follows. […] With the LRP5LBD-LexA bait and the Gal4AD-Dkk prey, over a 20-fold activation of a lacZ reporter (under the control of a single LexA operator) was detected over the background. […] As a result, small molecules may be identified that modulate this interaction between LRP and Dkk.

[2] = target: LRP6 (Homo sapiens, UniProt O75581); conditions: cited from earlier work
Sequence of LRP6 (O75581 20-1613, species assumed): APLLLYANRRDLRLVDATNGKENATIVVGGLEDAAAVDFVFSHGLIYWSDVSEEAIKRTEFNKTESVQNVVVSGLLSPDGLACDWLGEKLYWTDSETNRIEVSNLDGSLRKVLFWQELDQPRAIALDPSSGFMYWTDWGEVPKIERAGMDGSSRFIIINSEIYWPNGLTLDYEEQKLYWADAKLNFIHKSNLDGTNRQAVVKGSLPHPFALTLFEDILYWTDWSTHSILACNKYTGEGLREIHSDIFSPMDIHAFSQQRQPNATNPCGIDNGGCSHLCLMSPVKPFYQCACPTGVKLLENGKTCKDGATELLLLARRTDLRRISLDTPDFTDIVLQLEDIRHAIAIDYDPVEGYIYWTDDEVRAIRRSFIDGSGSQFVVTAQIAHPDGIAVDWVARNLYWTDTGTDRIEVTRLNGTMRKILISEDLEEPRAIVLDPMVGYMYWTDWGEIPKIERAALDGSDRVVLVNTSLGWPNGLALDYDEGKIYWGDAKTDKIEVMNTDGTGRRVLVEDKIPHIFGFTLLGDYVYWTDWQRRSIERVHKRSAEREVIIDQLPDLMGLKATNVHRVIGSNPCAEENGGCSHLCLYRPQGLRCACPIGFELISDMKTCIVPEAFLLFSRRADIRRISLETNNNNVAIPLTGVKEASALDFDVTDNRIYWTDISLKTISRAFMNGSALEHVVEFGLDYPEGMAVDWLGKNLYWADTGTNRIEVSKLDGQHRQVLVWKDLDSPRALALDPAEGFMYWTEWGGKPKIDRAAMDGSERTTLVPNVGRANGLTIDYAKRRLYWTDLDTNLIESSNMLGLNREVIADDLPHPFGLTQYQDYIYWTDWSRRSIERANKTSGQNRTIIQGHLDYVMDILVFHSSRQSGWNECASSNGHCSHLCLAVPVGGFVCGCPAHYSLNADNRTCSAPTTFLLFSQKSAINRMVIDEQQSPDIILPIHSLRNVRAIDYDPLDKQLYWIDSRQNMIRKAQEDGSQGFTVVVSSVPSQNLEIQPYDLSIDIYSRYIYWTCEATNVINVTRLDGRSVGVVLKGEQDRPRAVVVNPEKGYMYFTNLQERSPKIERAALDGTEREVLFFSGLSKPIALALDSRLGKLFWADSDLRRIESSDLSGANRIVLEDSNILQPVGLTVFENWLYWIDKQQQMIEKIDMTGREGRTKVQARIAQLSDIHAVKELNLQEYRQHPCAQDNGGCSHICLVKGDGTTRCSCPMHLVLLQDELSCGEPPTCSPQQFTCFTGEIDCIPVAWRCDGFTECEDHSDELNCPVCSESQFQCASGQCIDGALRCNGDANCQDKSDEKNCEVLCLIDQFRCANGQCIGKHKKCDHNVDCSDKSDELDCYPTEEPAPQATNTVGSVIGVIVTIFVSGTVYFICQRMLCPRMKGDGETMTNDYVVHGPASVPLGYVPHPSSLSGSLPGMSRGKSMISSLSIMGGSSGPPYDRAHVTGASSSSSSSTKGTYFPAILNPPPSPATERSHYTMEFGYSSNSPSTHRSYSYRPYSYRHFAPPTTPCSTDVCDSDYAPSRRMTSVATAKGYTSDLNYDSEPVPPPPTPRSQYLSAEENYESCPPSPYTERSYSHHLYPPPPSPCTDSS

[3] = target: T1, LRP5 (Homo sapiens, UniProt O75197); experiment: Cell-based TCF reporter high-throughput assay, LRP5 cDNA; conditions: U2OS cells, Wnt1 or Wnt3a/Wnt1 co-transfected, FIG. 20
T1 construct: Site-directed mutants of LRP5 were generated in the full-length human LRP5 cDNA; expressed in transfected cells; host or cells: HOB-03-CE6 osteoblastic cells; U2OS osteosarcoma cells; HEK293
T1 sequence (O75197 32-1615): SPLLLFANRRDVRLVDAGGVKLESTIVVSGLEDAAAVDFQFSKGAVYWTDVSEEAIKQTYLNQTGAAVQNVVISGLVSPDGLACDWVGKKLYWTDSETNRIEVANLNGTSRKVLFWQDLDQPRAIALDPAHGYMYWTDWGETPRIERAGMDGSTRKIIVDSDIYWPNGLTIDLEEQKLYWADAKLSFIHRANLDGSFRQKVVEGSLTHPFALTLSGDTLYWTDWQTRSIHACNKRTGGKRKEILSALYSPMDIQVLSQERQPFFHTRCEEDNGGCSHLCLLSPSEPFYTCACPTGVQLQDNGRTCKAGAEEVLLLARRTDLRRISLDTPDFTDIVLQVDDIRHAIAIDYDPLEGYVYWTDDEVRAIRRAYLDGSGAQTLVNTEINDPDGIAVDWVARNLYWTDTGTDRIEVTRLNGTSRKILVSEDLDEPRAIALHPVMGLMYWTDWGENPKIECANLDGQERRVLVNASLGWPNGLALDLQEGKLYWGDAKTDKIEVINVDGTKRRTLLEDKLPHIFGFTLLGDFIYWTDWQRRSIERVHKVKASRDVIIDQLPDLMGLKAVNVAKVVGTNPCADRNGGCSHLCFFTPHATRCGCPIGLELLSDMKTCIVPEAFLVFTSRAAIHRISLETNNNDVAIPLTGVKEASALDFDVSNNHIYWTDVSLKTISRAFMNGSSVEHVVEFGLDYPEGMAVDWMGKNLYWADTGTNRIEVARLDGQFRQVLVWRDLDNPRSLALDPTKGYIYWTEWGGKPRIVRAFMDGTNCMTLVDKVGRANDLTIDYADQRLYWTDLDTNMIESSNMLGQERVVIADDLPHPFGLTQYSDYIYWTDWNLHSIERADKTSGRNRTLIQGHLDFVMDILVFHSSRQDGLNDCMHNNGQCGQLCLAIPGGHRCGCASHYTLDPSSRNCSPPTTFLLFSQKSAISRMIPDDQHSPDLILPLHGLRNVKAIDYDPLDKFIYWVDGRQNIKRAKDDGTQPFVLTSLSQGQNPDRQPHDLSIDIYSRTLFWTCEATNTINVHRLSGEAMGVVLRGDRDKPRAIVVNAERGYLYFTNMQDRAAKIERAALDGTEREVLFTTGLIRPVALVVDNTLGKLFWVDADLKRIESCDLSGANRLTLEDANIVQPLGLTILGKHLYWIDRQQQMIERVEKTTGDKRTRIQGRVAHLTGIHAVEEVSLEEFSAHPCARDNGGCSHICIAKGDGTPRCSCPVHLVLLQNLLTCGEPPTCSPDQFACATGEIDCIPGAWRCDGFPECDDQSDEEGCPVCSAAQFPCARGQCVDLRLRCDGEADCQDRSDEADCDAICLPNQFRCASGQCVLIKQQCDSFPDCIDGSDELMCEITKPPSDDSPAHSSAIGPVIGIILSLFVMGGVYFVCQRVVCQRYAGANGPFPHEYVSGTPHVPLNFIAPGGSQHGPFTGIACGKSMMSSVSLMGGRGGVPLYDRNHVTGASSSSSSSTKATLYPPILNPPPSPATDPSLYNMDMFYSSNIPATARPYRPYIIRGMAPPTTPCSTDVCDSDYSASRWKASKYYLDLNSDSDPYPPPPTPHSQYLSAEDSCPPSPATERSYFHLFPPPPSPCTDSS
Text: To develop a high throughput assay, the TCF-luciferase assay described in Example 7 was modified utilizing low level expression of endogenous LRP5/6 in U2OS and HEK293 cells. However, HOB-03-CE6 cells and any other cells which show a differential response to Dkk depending on whether LRP5, LRP6 or HBM are expressed. Using U2OS (human osteosarcoma) and HEK293 (ATCC) cells, the TCF-luciferase and tk-Renilla reporter element constructs were co-transfected along with Wnt3a/1 and Dkk. Wnt3a alone, by using endogenous LRP5/6, was able to stimulate TCF reporter gene activation. When Dkk, is co-transfected with Wnt3a/Wnt 1 and reporters (TCF-luci and tk-Renilla), DEkk represses reporter element activity. In addition, the TCF-luci signal is activated by Wnt3a/Wnt1 can be repressed by the addition of Dkk-enriched conditioned media to the cells containing Wnt3a/Wnt1 and reporters.
The Dkk-mediated repression of the reporter is dependent upon the concentration of transfected Dkk cDNA or on the amount of Dkk-conditioned media added. In addition, the Dkk-mediated reporter suppression can be altered by the co-transfection of LRP5, LRP6, and HBM cDNAs in the U2OS or HEK293 cells. In general, U2OS cells show greater sensitivity to Dkk-mediated reporter suppression than that in HEK-293 cells. […]

[4] = test system: canonical Wnt signaling; conditions: Bafico et al.; Dkk-1 added at 30 pM; cited from earlier work
[5] = test system: Zmax/LRP5-mediated Wnt signaling; experiment: Xenopus embryo assay, hDkk-1 modulation of Zmax/LRP5+Wnt5a signaling; assay type: in vivo; conditions: hDkk-1 250 pg, FIG. 11
Method: (§1) mRNA for microinjection into Xenopus embryos is generated by in vitro transcription using the CDNA constructs in the pCS2^+ vector described above as template. RNA is synthesized using the Ambion mMessage mMachine high yield capped RNA transcription kit (Cat. #1340) following the manufacturer's specifications for the Sp6 polymerase reactions. RNA products were brought up to a final volume of 50 μl in sterile, glass-distilled water and purified over Quick Spin-Columns for Radiolabelled RNA Purification G50-Sephadex (Roche, Cat. #1274015) following the manufacturer's specifications. The resulting eluate was finally extracted with phenol:chloroform:isoamyl alcohol and isopropanol precipitated using standard protocols (Sambrook et al., 1989). Final RNA volumes were approximately 50 μl. RNA concentration was determined by absorbance values at 260 nm and 280 nm. RNA integrity was visualized by ethidium bromide staining of denaturing (formaldehyde) agarose gel electrophoresis (Sambrook et al., 1989). Various amounts of RNA (2 pg to 1 ng) are injected into the ventral blastomere of the 4- or 8-cell Xenopus embryo. These protocols are described in Moon et al., Technique-J. of Methods in Cell and Mol. Biol. 1: 76-89 (1989), and Peng, Meth. Cell. Biol. 36: 657-62 (1991). […]

[6] = test system: HBM-mediated Wnt signaling; experiment: Xenopus embryo assay, hDkk-1 modulation of HBM+Wnt5a signaling; assay type: in vivo; conditions: hDkk-1 250 pg, FIG. 11
Method: as §1

Sequence of LRP5 LBD (as listed by the source): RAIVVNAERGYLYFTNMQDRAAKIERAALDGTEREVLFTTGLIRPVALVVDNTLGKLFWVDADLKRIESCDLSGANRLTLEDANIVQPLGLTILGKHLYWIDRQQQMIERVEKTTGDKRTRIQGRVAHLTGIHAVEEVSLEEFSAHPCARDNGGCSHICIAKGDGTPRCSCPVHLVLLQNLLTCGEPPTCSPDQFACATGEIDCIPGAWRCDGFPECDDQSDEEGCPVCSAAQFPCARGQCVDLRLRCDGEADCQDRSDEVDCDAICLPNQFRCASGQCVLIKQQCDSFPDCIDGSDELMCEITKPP

Dkk-mediated repression of LRP5 signaling (TCF reporter) [3]: represses
Dkk-mediated repression of LRP5 signaling (TCF reporter) ([3]; listed as Dkk1): moderate
Substance: Dkk-1: Dickkopf-1 protein, antagonist of the Wnt pathway; expressed from human cDNA (RNA or plasmid)
activation of lacZ reporter over the background [1]: > 20 fold
pKd ([2]; Bafico et al., 125I-labeled Dkk-1): 9.41
pKd ([2]; Mao et al., classical biochemical ligand-receptor studies): 9.47
functional consequence of Dkk-1/LRP6 interaction on canonical Wnt signaling [4]: repression of the canonical Wnt signaling
repression of Zmax/LRP5-mediated Wnt signaling [5]: repressed
repression of HBM-mediated Wnt signaling [6]: unable to repress
